Assay results from ChEMBL document CHEMBL5365531, “Structure-Activity Relationship Studies of SARS-CoV-2 Main Protease Inhibitors Containing 4-Fluorobenzothiazole-2-carbonyl Moieties” (J Med Chem, 2023).

Tests used:
[1] = Mutagenicity in Salmonella typhimurium TA1537 assessed as fold increase in number of revertants at 0.152 to 333 ug incubated in presence of S9 fraction by micro-Ames test relative to control; format: toxicity, subcellular, Salmonella enterica subsp. enterica serovar Typhimurium; conditions: dose 0.152-333 µg
[2] = Stability of compound in 50% MeCN in H2O incubated for 24 hrs at room temperature by RP-HPLC analysis; format: physicochemical
SARS-CoV-2 [3] = assay: Antiviral activity against SARS-CoV-2 hCoV-19/Japan/TKYS02037/2022 (omicron BA.2) infected in Vero E6 cells preincubated with cells for 1 day followed by viral infection and measured after 3 days by qRT-PCR analysis; format: functional, organism-based; conditions: Severe acute respiratory syndrome coronavirus 2, hCoV-19/Japan/TKYS02037/2022 (omicron BA.2), Vero C1008
[4] = Cytotoxicity against human A549-hACE2-TMPRSS2 cells; format: toxicity, cell-based
[5] = Cytotoxicity against African green monkey Vero E6 cells in presence of P-glycoprotein inhibitor, CP100356; format: toxicity, cell-based, Vero C1008; conditions: chlorocebus sabaeus, with CP100356 (P-glycoprotein inhibitor)
[6] = Mutagenicity in Salmonella typhimurium TA98 assessed as fold increase in number of revertants at 0.152 to 333 ug incubated in absence of S9 fraction by micro-Ames test relative to control; format: toxicity, Salmonella enterica subsp. enterica serovar Typhimurium; conditions: in vivo; dose 0.152-333 µg
[7] = Cytotoxicity against human HeLa cells expressing ACE2 and TMPRSS2; format: toxicity, cell-based
[8] = Mutagenicity in Salmonella typhimurium TA1535 assessed as inhibition of bacterial growth at 0.152 to 333 ug incubated in presence of S9 fraction by micro-Ames test; format: toxicity, subcellular, Salmonella enterica subsp. enterica serovar Typhimurium; conditions: dose 0.152-333 µg
[9] = Oral bioavailability in PXB mouse at 10 mg/kg measured for 24 hrs; format: ADME, organism-based; conditions: in vivo
[10] = target: Replicase polyprotein 1ab (Severe acute respiratory syndrome coronavirus 2, UniProt P0DTD1); assay: Inhibition of untagged SARS-CoV-2 JPN/TY/WK-521 Main protease using FRET-based UIVT3 as substrate by continuous fluorescence assay
[11] = Stability of compound in DMSO incubated for 7 days at -18 degreeC by RP-HPLC analysis; format: physicochemical; conditions: 168 h; time 7 day
[12] = Cytotoxicity against human HepG2 cells; format: toxicity, cell-based
[13] = Mutagenicity in Salmonella typhimurium TA1535 assessed as fold increase in number of revertants at 0.152 to 333 ug incubated in presence of S9 fraction by micro-Ames test relative to control; format: toxicity, subcellular, Salmonella enterica subsp. enterica serovar Typhimurium; conditions: dose 0.152-333 µg
[14] = Mutagenicity in Escherichia coli WP2uvrA assessed as fold increase in number of revertants at 0.152 to 333 ug incubated in presence of S9 fraction by micro-Ames test relative to control; format: toxicity, subcellular; conditions: dose 0.152-333 µg
[15] = Mutagenicity in Salmonella typhimurium TA100 assessed as inhibition of bacterial growth at 0.152 to 333 ug incubated in absence of S9 fraction by micro-Ames test; format: toxicity, Salmonella enterica subsp. enterica serovar Typhimurium; conditions: in vivo; dose 0.152-333 µg
[16] = Mutagenicity in Escherichia coli WP2uvrA assessed as fold increase in number of revertants at 0.152 to 333 ug incubated in absence of S9 fraction by micro-Ames test relative to control; format: toxicity; conditions: in vivo; dose 0.152-333 µg
MOLT-4 = assay: Cytotoxicity against human MOLT-4 cells assessed as reduction in cell viability at 3 uM incubated for 12 days by CCK-8 assay; format: toxicity, cell-based; conditions: molt-4, 288 h, time 12 day
SARS-CoV-2 [17] = assay: Antiviral activity against SARS-CoV-2 JPN/TY/WK-521 infected in Vero E6 cells preincubated with cells for 1 day followed by viral infection and measured after 3 days by qRT-PCR analysis; format: functional, organism-based; conditions: Severe acute respiratory syndrome coronavirus 2, JPN/TY/WK-521, Vero C1008
[18] = Mutagenicity in Escherichia coli WP2uvrA assessed as inhibition of bacterial growth at 0.152 to 333 ug incubated in absence of S9 fraction by micro-Ames test; format: toxicity; conditions: in vivo; dose 0.152-333 µg
[19] = Mutagenicity in Salmonella typhimurium TA1535 assessed as inhibition of bacterial growth at 0.152 to 333 ug incubated in absence of S9 fraction by micro-Ames test; format: toxicity, Salmonella enterica subsp. enterica serovar Typhimurium; conditions: in vivo; dose 0.152-333 µg
SARS-CoV-2 [20] = assay: Antiviral activity against SARS-CoV-2 infected in Vero E6 cells preincubated with cells for 1 day in absence of HCl followed by viral infection and measured after 3 days by qRT-PCR analysis; format: functional, organism-based; conditions: Severe acute respiratory syndrome coronavirus 2, Vero C1008
[21] = Mutagenicity in Salmonella typhimurium TA1537 assessed as inhibition of bacterial growth at 0.152 to 333 ug incubated in absence of S9 fraction by micro-Ames test; format: toxicity, Salmonella enterica subsp. enterica serovar Typhimurium; conditions: in vivo; dose 0.152-333 µg
[22] = Mutagenicity in Salmonella typhimurium TA98 assessed as inhibition of bacterial growth at 0.152 to 333 ug incubated in absence of S9 fraction by micro-Ames test; format: toxicity, Salmonella enterica subsp. enterica serovar Typhimurium; conditions: in vivo; dose 0.152-333 µg
SARS-CoV-2 [23] = assay: Antiviral activity against SARS-CoV-2 infected in Vero E6 cells preincubated with cells for 1 day in presence of HCl treated compound followed by viral infection and measured after 3 days by qRT-PCR analysis; format: functional, organism-based; conditions: Severe acute respiratory syndrome coronavirus 2, Vero C1008
[24] = Cytotoxicity against African green monkey Vero E6 cells incubated for 3 days by WST-8 assay; format: toxicity, cell-based, Vero C1008; conditions: chlorocebus sabaeus, time 3 day
[25] = Mutagenicity in Salmonella typhimurium TA100 assessed as fold increase in number of revertants at 0.152 to 333 ug incubated in presence of S9 fraction by micro-Ames test relative to control; format: toxicity, subcellular, Salmonella enterica subsp. enterica serovar Typhimurium; conditions: dose 0.152-333 µg
SARS-CoV-2 [26] = assay: Antiviral activity against SARS-CoV-2 JPN/TY/WK-521 infected in Vero E6 cells assessed as fold change preincubated with cells for 1 day followed by viral infection and measured after 3 days by qRT-PCR analysis relative to TKB245; format: functional, Severe acute respiratory syndrome coronavirus 2; conditions: time 4 day
[27] = Mutagenicity in Salmonella typhimurium TA1535 assessed as fold increase in number of revertants at 0.152 to 333 ug incubated in absence of S9 fraction by micro-Ames test relative to control; format: toxicity, Salmonella enterica subsp. enterica serovar Typhimurium; conditions: in vivo; dose 0.152-333 µg
PBMC = assay: Cytotoxicity against human PBMC cells assessed as reduction in cell viability at 3 uM incubated for 12 days by CCK-8 assay; format: toxicity, cell-based; conditions: 288 h, time 12 day
[28] = Mutagenicity in Salmonella typhimurium TA100 assessed as inhibition of bacterial growth at 0.152 to 333 ug incubated in presence of S9 fraction by micro-Ames test; format: toxicity, subcellular, Salmonella enterica subsp. enterica serovar Typhimurium; conditions: dose 0.152-333 µg
[29] = Mutagenicity in Salmonella typhimurium TA98 assessed as fold increase in number of revertants at 0.152 to 333 ug incubated in presence of S9 fraction by micro-Ames test relative to control; format: toxicity, subcellular, Salmonella enterica subsp. enterica serovar Typhimurium; conditions: dose 0.152-333 µg
MT2 = assay: Cytotoxicity against human MT2 cells assessed as reduction in cell viability at 3 uM incubated for 12 days by CCK-8 assay; format: toxicity, cell-based; conditions: mt2, 288 h, time 12 day
Vero C1008 = assay: Cytotoxicity against African green monkey Vero E6 cells infected with SARS-CoV-2 WK-521 upto 100 uM incubated for 3 days by immunostaining analysis; format: toxicity, cell-based; conditions: chlorocebus sabaeus, vero c1008, 72 h, time 3 day
[30] = Stability of compound in 50% MeCN in H2O containing 0.05% trifluoroacetic acid assessed as (1R,2S,5S)-3-((S)-3,3-dimethyl-2-(2,2,2-trifluoroacetamido)butanoyl)-N-((S)-1-(4-fluorobenzo[d]thiazol-2-yl)-1-oxo-3-((S)-2-oxopyrrolidin-3-yl)propan-2-yl)-6,6-dimethyl-3-azabicyclo[3.1.0]hexane-2-carboxamide formation at 5 degreeC measured after 24 hrs by RP-HPLC analysis; format: physicochemical
[31] = Mutagenicity in Salmonella typhimurium TA1537 assessed as inhibition of bacterial growth at 0.152 to 333 ug incubated in presence of S9 fraction by micro-Ames test; format: toxicity, subcellular, Salmonella enterica subsp. enterica serovar Typhimurium; conditions: dose 0.152-333 µg
[32] = Mutagenicity in Salmonella typhimurium TA98 assessed as inhibition of bacterial growth at 0.152 to 333 ug incubated in presence of S9 fraction by micro-Ames test; format: toxicity, subcellular, Salmonella enterica subsp. enterica serovar Typhimurium; conditions: dose 0.152-333 µg
SARS-CoV-2 [33] = assay: Antiviral activity against SARS-CoV-2 assessed as fold change relative to YH-53; format: functional, Severe acute respiratory syndrome coronavirus 2
[34] = Mutagenicity in Salmonella typhimurium TA100 assessed as fold increase in number of revertants at 0.152 to 333 ug incubated in absence of S9 fraction by micro-Ames test relative to control; format: toxicity, Salmonella enterica subsp. enterica serovar Typhimurium; conditions: in vivo; dose 0.152-333 µg
[35] = Mutagenicity in Salmonella typhimurium TA1537 assessed as fold increase in number of revertants at 0.152 to 333 ug incubated in absence of S9 fraction by micro-Ames test relative to control; format: toxicity, Salmonella enterica subsp. enterica serovar Typhimurium; conditions: in vivo; dose 0.152-333 µg
SARS-CoV-2 [36] = assay: Antiviral activity against SARS-CoV-2 JPN/TY/WK-521 infected in Vero E6 cells assessed as inhibition of viral replication preincubated with cells for 1 day followed by viral infection and measured after 3 to 4 days by qRT-PCR analysis; format: functional, organism-based; conditions: Severe acute respiratory syndrome coronavirus 2, JPN/TY/WK-521, Vero C1008
[37] = Mutagenicity in Escherichia coli WP2uvrA assessed as inhibition of bacterial growth at 0.152 to 333 ug incubated in presence of S9 fraction by micro-Ames test; format: toxicity, subcellular; conditions: dose 0.152-333 µg

## CC(C)(C)[C@H](NC(=O)C(F)(F)F)C(=O)N1C[C@H]2[C@@H]([C@H]1C(=S)N[C@@H](C[C@@H]1CCNC1=O)C(=O)c1nc3c(F)cccc3s1)C2(C)C
[1]
  fold change (FC): > 2
[2]
  Stability: Stable
SARS-CoV-2 [3]
  EC50: 160 nM
[4]
  CC50: > 100000 nM
[5]
  CC50: > 100000 nM
[6]
  fold change (FC): > 2
[7]
  CC50: > 100000 nM
[8]
  Activity: Non-Toxic
[9]
  bioavailability: 72%
[10]
  IC50: 88 nM
[11]
  Stability: Stable
[12]
  CC50: > 200000 nM
[13]
  fold change (FC): > 2
[14]
  fold change (FC): > 2
[15]
  Activity: Non-Toxic
[16]
  fold change (FC): > 2
MOLT-4
  Activity: Non-Toxic
SARS-CoV-2 [17]
  EC50: 310 nM
[18]
  Activity: Non-Toxic
[19]
  Activity: Non-Toxic
SARS-CoV-2 [20]
  EC50: 310 nM
[21]
  Activity: Non-Toxic
[22]
  Activity: Non-Toxic
SARS-CoV-2 [23]
  EC50: 320 nM
[24]
  CC50 at 72 h: > 100000 nM
[25]
  fold change (FC): > 2
SARS-CoV-2 [26]
  fold change (FC): 11
[27]
  fold change (FC): > 2
PBMC
  Activity: Non-Toxic
[28]
  Activity: Non-Toxic
[29]
  fold change (FC): > 2
MT2
  Activity: Non-Toxic
Vero C1008
  Activity: Non-Toxic
[30]
  Stability: Unstable
[31]
  Activity: Non-Toxic
[32]
  Activity: Non-Toxic
SARS-CoV-2 [33]
  fold change (FC): 0.085
[34]
  fold change (FC): > 2
[35]
  fold change (FC): > 2
SARS-CoV-2 [36]
  EC50: 220 nM
[37]
  Activity: Non-Toxic
